The subject of data set [1] is BALB/c mice. In words: Observation for a week after oral administration to BALB/c mice. The class given is in vivo, mouse. Particulars: 100 mg/kg. Here is the method:
The same results were obtained where hesperidin, acacetin, diosmetin, apigenin, luteolin, or kaempferol was administered.

Data set [2] deals with chondrocyte culture (derived from cartilage of rabbit shoulder and knee joints). The data set can be described thus: Effect of test compounds on proteoglycan depletion in chondrocyte culture (PMA-induced, GAG content). Type of data set: cell-based, rabbit (New Zealand white Rabbits). Particulars: for Relative amount of GAG: control without PMA = 100. Here is the method:
The cartilages were sterilely extracted from the shoulder and knee joints of rabbits (New Zealand white Rabbits) (body weight of 1 to 1.5 kg). The cartilages were thoroughly washed with PBS (−) (free of Ca^2+, Mg^2+), Hanks' solution and 0.1% EDTA-PBS (−), and then cut into small segments (1 mm×1 mm×1 mm). After PBS (−) containing 0.1% EDTA was added, the segments were allowed to stand in an incubator of 37° C. for 30 minutes. Then, the segments were treated with a trypsin solution (0.25%) at 37° C. for one hour to remove the connective tissue adhered to the cartilage. After the supernatant had been removed, the cartilages were treated for about 2 to 2.5 hours in a Ham F-12 medium containing 10% fetal bovine serum (FBS) and 0.2% collagenase. Then, the collagenase solution was centrifuged (1500 r.p.m.), and the residual chondrocytes were washed twice with a Ham F-12 medium (chondrocyte culture medium) containing 10% FBS. Finally, the resulting suspension was adjusted so that the chondrocytes were suspended in the concentration of 3×10^5 cells/ml in the chondrocyte culture medium. The chondrocytes were seeded in an amount of 1 ml/well on 24-well plates. The chondrocytes became confluent after 4 days. The experiment were performed within two weeks after reaching the confluent stage.
The chondrocyte culture medium which had been used for cultivating the chondrocytes was removed from each well and 800 μl of fresh serum-free S-Clone medium containing 0.1% human serum albumin was added. Further, 100 μl of S-Clone medium containing the compounds to be tested (containing the compound in the concentration of 10 fold the final concentration; DMSO concentration=2.5%) was added. The chondrocytes were cultured in the presence of carbon dioxide (5%) and air (95%) for 2 hours. Then, the proteoglycan depleting agent, PMA (phorbol myristate acetate) (final concentration=0.1 μg/ml) was added into the culture medium of the chondrocytes.
Proteoglycan depletion was determined by the measurement of the glycosaminoglycan (major constituent of proteoglycan, hereinafter referred to as GAG) content following digestion of the chondrocyte matrix with papain.
After 2 days, the supernatant of the chondrocyte culture was removed. Then, 1 ml of 0.03 […] papaine solution was added to the remaining chondrocyte matrix layer and a reaction was performed at 65° C. for 1 hour to liberate the GAG from the matrix layer. The content of the GAG in the treated papaine solution was determined by the 1,9-dimethylmethylene blue method (refer to R. W. Farndale, Biochim. Biophys. Acta., Vol. 883, pp. 173 to 177, 1986). The GAG content in the chondrocyte matrix of the control test wherein the proteoglycan depleting agent was not added was shown as “100”, and the relative amount of the GAG of each experiment except the control test was calculated by following formula:
GAG relative amount (%)=(B/A)×100
wherein A represents the GAG content of the control tests wherein the proteoglycan depleting agent was not added, and B represents the GAG content wherein the proteoglycan depleting agents were added alone or the GAG content wherein the proteoglycan depleting agents and the compounds to be tested were added.
The GAG content is the value of the mean value ± standard error (n=3 to 6). For each of the compounds to be tested, the control test and the proteoglycan depleting test wherein the proteoglycan depleting agent was added were carried out and the results thereof are also shown. The significance was determined by Student's t-test with respect to the proteoglycan depleting test wherein the proteoglycan depleting agent was added.

A short description of data set [3]: Acute toxicity, mouse LD50. Type of data set: in vivo. Particulars: in vivo, oral administration.
Data set [4] relates to Mouse. The data set can be described thus: Acute toxicity, mouse LD50. The class given is in vivo. To be noted: intravenous injection.
[5] abbreviates: PMA 0.1 μg/ml + test compound 100 μM, chondrocyte matrix after 2 days, mean ± standard error (n=3 to 6).
The mark [6] stands for this setting: PMA 0.1 μg/ml + test compound 100 μM.
[7] abbreviates: BALB/c mice (female, seven weeks old), oral.

On to `O=c1cc(-c2ccc(O)c(O)c2)oc2cc(O)cc(O)c12` [No. 8, Luteolin], for which the “abnormalities observed for a week after administration” value (shortened to “abnormalities observed for a week”) in data set [1] (mouse, in vivo, po) is reported as “no abnormalities were observed”. Also, the GAG content in data set [2] (setting [5]) turned out to be 28.6 ± 0.5 µg/mL. For the same compound, in data set [2] (setting [6]), the “Relative amount of GAG” value was “(52.2) %”.
In the same order, the values of `O=c1cc(-c2ccc(O)cc2)oc2cc(O)cc(O)c12` [No. 5, Apigenin] are “no abnormalities were observed”, 33.3 ± 0.7 µg/mL and “(60.9) %”.
Take `COc1ccc(-c2cc(=O)c3c(O)cc(O)cc3o2)cc1O` [No. 13, Diosmetin]: the “abnormalities observed for a week” value in data set [1] (mouse, in vivo, po) was “no abnormalities were observed”. In addition, the GAG content in data set [2] (setting [5]) was determined as 27.1 ± 0.7 µg/mL. Also, the “Relative amount of GAG” value in data set [2] (setting [6]) was “(49.0) %”.
The like results for `COc1ccc(-c2cc(=O)c3c(O)cc(O)cc3o2)cc1` [No. 11, Acacetin] were, in that order, “no abnormalities were observed”, 24.2 ± 0.3 µg/mL and “(44.8) %”.
Consider `O=c1c(O)c(-c2ccc(O)cc2)oc2cc(O)cc(O)c12` [No. 17, Kaempferol], for which the “abnormalities observed for a week” value in data set [1] (mouse, in vivo, po) is “no abnormalities were observed”. Further, the GAG content in data set [2] (setting [5]) was 30.5 ± 0.3 µg/mL. The “Relative amount of GAG” value in data set [2] (setting [6]) is reported as “(55.7) %”.
Regarding `COc1ccc(-c2cc(=O)c3c(O)cc(O[C@@H]4O[C@H](CO[C@@H]5O[C@@H](C)[C@H](O)[C@@H](O)[C@H]5O)[C@@H](O)[C@H](O)[C@H]4O)cc3o2)cc1` [No. 12, Linarin], the GAG content in data set [2] (setting [5]) worked out at 19.8 ± 0.7 µg/mL. The “Relative amount of GAG” value in data set [2] (setting [6]) was “(35.8) %”.
As to `COc1ccc([C@@H]2CC(=O)c3c(O)cc(O[C@@H]4O[C@H](CO[C@@H]5O[C@@H](C)[C@H](O)[C@@H](O)[C@H]5O)[C@@H](O)[C@H](O)[C@H]4O)cc3O2)cc1O` [No. 42, Hesperidin], the “abnormalities observed for a week” value in data set [1] (setting [7]) is listed as “no abnormalities were observed”. The GAG content in data set [2] (setting [5]) came to 24.0 ± 0.6 µg/mL. In addition, in data set [2] (setting [6]), the “Relative amount of GAG” value was “(42.8) %”.
Usually LD50 stands for the dose at which mortality reaches 50%. A high value points to lower toxicity. In the case of `O=c1c(O)c(-c2ccc(O)c(O)c2)oc2cc(O)cc(O)c12` [No. 22, Quercetin], the GAG content in data set [2] (setting [5]) stood at 31.0 ± 0.6 µg/mL. For the same compound, the “Relative amount of GAG” value in data set [2] (setting [6]) was “(55.3) %”. Besides, the LD50 in data set [3] is 160 mg/kg.
On to `O=c1cc(-c2ccccc2)oc2cc(O)c(O)c(O)c12` [No. 15, Baicalein], for which the GAG content in data set [2] (setting [5]) was 7.67 ± 0.5 µg/mL. Further, the “Relative amount of GAG” value in data set [2] (setting [6]) is given as “(68.3) %”.
Turning to `O=c1c(O)c(-c2ccc(O)c(O)c2)oc2cc(O)ccc12` [No. 16, Fisetin], the GAG content in data set [2] (setting [5]) worked out at 30.1 ± 0.9 µg/mL. For the same compound, in data set [2] (setting [6]), the “Relative amount of GAG” value is recorded as “(55.7) %”. This compound displayed an LD50 in data set [4] of 180 mg/kg.
For the compound `COc1ccc([C@@H]2CC(=O)c3c(O)cc(O)cc3O2)cc1O` [No. 41, Hesperetin], in data set [1] (setting [7]), the “abnormalities observed for a week” value is given as “no abnormalities were observed”. Also, the GAG content in data set [2] (setting [5]) turned out to be 28.7 ± 0.4 µg/mL. Besides, the “Relative amount of GAG” value in data set [2] (setting [6]) was “(48.6) %”.
`COc1ccc2c(c1)c(CC(=O)O)c(C)n2C(=O)c1ccc(Cl)cc1` [indometacin, Indometacin, reference compound]: the “Relative amount of GAG” value in data set [2] (PMA 0.1 μg/ml + indometacin 10 μM) is “(47.1) %”; in data set [2] (PMA 0.1 μg/ml + indometacin 33 μM), “(41.8) %”. Further, the GAG content is 13.2 ± 0.6 µg/mL in data set [2] (PMA 0.1 μg/ml + indometacin 10 μM, mean ± standard error) and 11.7 ± 0.8 µg/mL in data set [2] (PMA 0.1 μg/ml + indometacin 33 μM, mean ± standard error).

Values taken from US6583118B1, “Chondroprotective agents” (Kureha Chemical Industry Co., Ltd., priority 1993, dated 2003).
